Assay results published in ChEMBL document CHEMBL1151658, “Degradation of Lycorine by Pseudomonas Species Strain ITM 311” (1985).
The source made the active and inactive calls. No cut-off for these calls is given here.

Legend:
[1] = test system: Pseudomonas syringae; assay: Antimicrobial activity against Pseudomonas syringae pv. syringae NCPPB ITM24 after 48 to 72 hrs by paper disk method; assay type: functional, organism-based
[2] = test system: Pectobacterium carotovorum; assay: Antimicrobial activity against Erwinia carotovora subsp. carotovora NCPPB ITM 180 after 48 to 72 hrs by paper disk method; assay type: functional, organism-based
[3] = test system: Priestia megaterium; assay: Antimicrobial activity against Bacillus megaterium ITM 80 after 48 to 72 hrs by paper disk method; assay type: functional, organism-based
[4] = test system: Rhodococcus fascians; assay: Antimicrobial activity against Corynebacterium fascians NCPPB 2551 at 0.0001 molarity/paper disk; assay type: functional, Rhodococcoides fascians
[5] = test system: Pseudomonas coronafaciens; assay: Antimicrobial activity against Pseudomonas coronafaciens NCPPB 2481 after 48 to 72 hrs by paper disk method; assay type: functional, organism-based
[6] = test system: Rhodococcus fascians; assay: Antimicrobial activity against Corynebacterium fascians NCPPB 2551 at 0.01 molarity/paper disk; assay type: functional, Rhodococcoides fascians
[7] = test system: Agrobacterium tumefaciens; assay: Antimicrobial activity against Agrobacterium tumefaciens ITM 71 after 48 to 72 hrs by paper disk method; assay type: functional, organism-based
[8] = test system: Xanthomonas euvesicatoria; assay: Antimicrobial activity against Xanthomonas campestris pv. vesicatoria NCPPB 1616 after 48 to 72 hrs by paper disk method; assay type: functional, organism-based
[9] = test system: Rhodococcus fascians; assay: Antimicrobial activity against Corynebacterium fascians NCPPB 2551 at 0.0005 molarity/paper disk; assay type: functional, Rhodococcoides fascians
[10] = test system: Pseudomonas savastanoi; assay: Antimicrobial activity against Pseudomonas savastanoi ITM 519 after 48 to 72 hrs by paper disk method; assay type: functional, organism-based
[11] = test system: Pseudomonas syringae; assay: Antimicrobial activity against Pseudomonas syringae pv. tomato NCPPB 2563 after 48 to 72 hrs by paper disk method; assay type: functional, organism-based
[12] = test system: Pseudomonas syringae; assay: Antimicrobial activity against Pseudomonas syringae pv. maculicola NCPPB 1777 after 48 to 72 hrs by paper disk method; assay type: functional, organism-based
[13] = test system: Pseudomonas cichorii; assay: Antimicrobial activity against Pseudomonas cichorii NCPPB 2379 after 48 to 72 hrs by paper disk method; assay type: functional, organism-based
[14] = test system: Pseudomonas syringae; assay: Antimicrobial activity against Pseudomonas syringae pv. tabaci NCPPB 2730 after 48 to 72 hrs by paper disk method; assay type: functional, organism-based; conditions: Pseudomonas amygdali pv. tabaci
[15] = test system: Curtobacterium flaccumfaciens; assay: Antimicrobial activity against Corynebacterium flaccumfaciens NCPPB 559 after 48 to 72 hrs by paper disk method; assay type: functional, organism-based
[16] = test system: Rhodococcus fascians; assay: Antimicrobial activity against Corynebacterium fascians NCPPB 2551 at 0.001 molarity/paper disk; assay type: functional, Rhodococcoides fascians
[17] = test system: Pseudomonas; assay: Antimicrobial activity against Pseudomonas ITM 311 after 48 to 72 hrs by paper disk method; assay type: functional, organism-based

Compound	Activity [1]	Activity [2]	Activity [3]	inhibition zone (IZ) [4]	Activity [5]	inhibition zone (IZ) [6]	Activity [7]	Activity [8]	inhibition zone (IZ) [9]	Activity [10]	Activity [11]	Activity [12]	Activity [13]	Activity [14]	Activity [15]	inhibition zone (IZ) [16]	Activity [17]
[Cl-].c1cc2c3c(c1)c1cc4c(cc1c[n+]3CC2)OCO4 [ANHYDROLYCORINIUM CHLORIDE]	Active	Active	Active	10 mm	Active	30 mm	Active	Active	16 mm	Active	Active	Active	Active	Active	Active	24 mm	inactive
[O-]c1cc2c3c(c1)c1cc4c(cc1c[n+]3CC2)OCO4 [UNGEREMINE]	Active	Active	Active	0 mm	Active	15 mm	Active	Active	0 mm	Active	Active	Active	Active	Active	Active	14 mm	inactive
Oc1cc2c3c(c1)c1cc4c(cc1c[n+]3CC2)OCO4.[Cl-]				0 mm		0 mm			0 mm							0 mm	
O=C1N[C@@H]2C(=C[C@H](O)[C@@H](O)[C@H]2O)c2cc3c(c(O)c21)OCO3 [NARCICLASINE]				0 mm		0 mm			0 mm							0 mm	
c1cc2c3c(c1)-c1cc4c(cc1CN3CC2)OCO4 [ANHYDROLYCORINE]				0 mm		25 mm			15 mm							25 mm	
O=c1c2cc3c(cc2c2cccc4c2n1CC4)OCO3				0 mm		25 mm			9 mm							12 mm	
O[C@H]1[C@H]2c3cc4c(cc3CN3CCC(=C[C@@H]1O)[C@H]23)OCO4 [LYCORINE]				0 mm		0 mm			0 mm							0 mm	
Oc1ccc2c3c1c1cc4c(cc1c[n+]3CC2)OCO4.[Cl-]				0 mm		10 mm			0 mm							7 mm	
